Measured values published in patent US20230085307A1, “PYRIDAZINONE COMPOUND AND HERBICIDE” (NISSAN CHEMICAL CORPORATION, priority 2019, published 2023).

Key:
redroot pigweed [1] = test: Test Example 4: herbicidal effect by soil treatment (Table 19, symbol N); type: in vivo, redroot pigweed (Amaranthus retroflexus)
Procedure, shortened: (§1)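 Herbicidal effect was rated 3 weeks after treatment, using the scoring criteria of an earlier test. The compound, formulated as an emulsion and diluted in water to a set herbicide amount, had been sprayed uniformly on soil over freshly sown seeds. Growth took place in a greenhouse at 25° C. to 30° C.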

green foxtail = test: Test Example 4: herbicidal effect by soil treatment (Table 19, symbol G); type: in vivo, green foxtail (Setaria viridis)
Procedure, shortened: as §1

late watergrass = test: Test Example 2: herbicidal activity, application during weed generation under submerged conditions (Table 17, symbol A); type: in vivo, late watergrass (Echinochloa oryzicola); settings: application during weed generation, submerged conditions
Procedure, shortened: (§2)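 In this pot test, flooded alluvial soil (water depth 4 cm) holds all three species sown as a mixture. Once seedlings have one to two leaves, the compound's emulsion, thinned with water to the intended dose, is poured on the water; grading follows after three weeks on the earlier criteria.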

oval-leafed pondweed = test: Test Example 2: herbicidal activity, application during weed generation under submerged conditions (Table 17, symbol C); type: in vivo, oval-leafed pondweed (Monochoria vaginalis); settings: application during weed generation, submerged conditions
Procedure, shortened: as §2

barnyard grass [2] = test: Test Example 4: herbicidal effect by soil treatment (Table 19, symbol H); type: in vivo, barnyard grass (Echinochloa crus-galli)
Procedure, shortened: as §1

blackgrass = test: Test Example 4: herbicidal effect by soil treatment (Table 19, symbol J); type: in vivo, blackgrass (Alopecurus myosuroides)
Procedure, shortened: as §1

southern crabgrass = test: Test Example 4: herbicidal effect by soil treatment (Table 19, symbol F); type: in vivo, southern crabgrass (Digitaria ciliaris)
Procedure, shortened: as §1

persian speedwell [3] = test: Test Example 4: herbicidal effect by soil treatment (Table 19, symbol R); type: in vivo, Persian speedwell (Veronica persica)
Procedure, shortened: as §1

persian speedwell [4] = test: Test Example 5: herbicidal effect by foliage application, plastic box (Table 20, symbol R); type: in vivo, Persian speedwell (Veronica persica); settings: foliage application
Procedure, shortened: (§3)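 Foliar spray test: emulsion formulation diluted in water to a set application rate, sprayed onto 14-day-old plants raised in diluvial soil at 25° C to 30° C under glass. Both herbicidal effect and crop effect rated visually three weeks later.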

barnyard grass [5] = test: Test Example 5: herbicidal effect by foliage application, plastic box (Table 20, symbol H); type: in vivo, barnyard grass (Echinochloa crus-galli); settings: foliage application
Procedure, shortened: as §3

Japanese bulrush = test: Test Example 2: herbicidal activity, application during weed generation under submerged conditions (Table 17, symbol B); type: in vivo, Japanese bulrush (Schoenoplectus juncoides); settings: application during weed generation, submerged conditions
Procedure, shortened: as §2

windgrass = test: Test Example 5: herbicidal effect by foliage application, plastic box (Table 20, symbol L); type: in vivo, windgrass (Apera spica-venti); settings: foliage application
Procedure, shortened: as §3

false cleavers [6] = test: Test Example 5: herbicidal effect by foliage application, plastic box (Table 20, symbol Q); type: in vivo, false cleavers (Galium spurium); settings: foliage application
Procedure, shortened: as §3

wild oat = test: Test Example 4: herbicidal effect by soil treatment (Table 19, symbol I); type: in vivo, wild oat (Avena fatua)
Procedure, shortened: as §1

velvetleaf = test: Test Example 4: herbicidal effect by soil treatment (Table 19, symbol M); type: in vivo, velvetleaf (Abutilon theophrasti)
Procedure, shortened: as §1

false cleavers [7] = test: Test Example 4: herbicidal effect by soil treatment (Table 19, symbol Q); type: in vivo, false cleavers (Galium spurium); settings: amount of applied herbicide 320 g/ha
Procedure, shortened: as §1

chickweed = test: Test Example 5: herbicidal effect by foliage application, plastic box (Table 20, symbol P); type: in vivo, common chickweed (Stellaria media); settings: foliage application
Procedure, shortened: as §3

redroot pigweed [8] = test: Test Example 5: herbicidal effect by foliage application, plastic box (Table 20, symbol N); type: in vivo, redroot pigweed (Amaranthus retroflexus); settings: foliage application
Procedure, shortened: as §3

[9] = 320 g/ha, 3 weeks after application
[10] = amount of applied herbicide 246 g/ha
[11] = 246 g/ha, three weeks after application
[12] = amount of applied herbicide 320 g/ha
[13] = 320 g/ha, three weeks after application
[14] = AAH 320 g/ha, evaluated three weeks after application

Q: Which results are given for `CCCC(=O)Oc1c(C)nn(C)c(=O)c1-c1c(-c2ccc(OC(C)C)cc2)sc2ccc(F)cc12` [2-035]?
A: herbicidal effect rating, N: redroot pigweed (redroot pigweed [1]; 320 g/ha): 5 (Herbicidal rate of 90% or more (almost completely withered)); herbicidal effect rating, G: green foxtail (green foxtail; 320 g/ha): 3 (Herbicidal rate of 40% or more and less than 70%); herbicidal effect rating, A: late watergrass (late watergrass; AAH 320 g/ha): 1 (Herbicidal rate of 5% or more and less than 20%); herbicidal effect rating, C: oval-leafed pondweed (oval-leafed pondweed; AAH 320 g/ha): 4 (Herbicidal rate of 70% or more and less than 90%); herbicidal effect rating, H: barnyard grass (barnyard grass [2]; 320 g/ha): 2 (Herbicidal rate of 20% or more and less than 40%); herbicidal effect rating, J: blackgrass (blackgrass; 320 g/ha): 0 (Herbicidal rate of 5% or less (almost no effect)); herbicidal effect rating, F: southern crabgrass (southern crabgrass; 320 g/ha): 3 (Herbicidal rate of 40% or more and less than 70%); herbicidal effect rating, R: persian speedwell (persian speedwell [3]; 320 g/ha): 5 (Herbicidal rate of 90% or more (almost completely withered)); effect on persian speedwell (R) (persian speedwell [4]; [9]): 5 (Herbicidal rate of 90% or more (almost completely withered)); effect on barnyard grass (H) (barnyard grass [5]; [9]): 5 (Herbicidal rate of 90% or more (almost completely withered)); herbicidal effect rating, B: Japanese bulrush (Japanese bulrush; AAH 320 g/ha): 4 (Herbicidal rate of 70% or more and less than 90%); effect on windgrass (L) (windgrass; [9]): 0 (Herbicidal rate of 5% or less (almost no effect)); effect on false cleavers (Q) (false cleavers [6]; [9]): 4 (Herbicidal rate of 70% or more and less than 90%); herbicidal effect rating, I: wild oat (wild oat; 320 g/ha): 0 (Herbicidal rate of 5% or less (almost no effect)); herbicidal effect rating, M: velvetleaf (velvetleaf; 320 g/ha): 3 (Herbicidal rate of 40% or more and less than 70%)

Q: Which results are given for `CCCC(=O)Oc1c(C)nn(C)c(=O)c1-c1c(-c2ccc(F)cc2OCC)oc2ccc(C)cc12` [9-010]?
A: N: redroot pigweed, herbicidal effect grade (redroot pigweed [1]; [10]): 0 (Herbicidal rate of 5% or less (almost no effect)); G: green foxtail, herbicidal effect grade (green foxtail; [10]): 3 (Herbicidal rate of 40% or more and less than 70%); herbicidal effect rating, A: late watergrass (late watergrass; AAH 246 g/ha): 0 (Herbicidal rate of 5% or less (almost no effect)); herbicidal effect rating, C: oval-leafed pondweed (oval-leafed pondweed; AAH 246 g/ha): 2 (Herbicidal rate of 20% or more and less than 40%); H: barnyard grass, herbicidal effect grade (barnyard grass [2]; [10]): 0 (Herbicidal rate of 5% or less (almost no effect)); J: blackgrass, herbicidal effect grade (blackgrass; [10]): 0 (Herbicidal rate of 5% or less (almost no effect)); F: southern crabgrass, herbicidal effect grade (southern crabgrass; [10]): 0 (Herbicidal rate of 5% or less (almost no effect)); R: persian speedwell, herbicidal effect grade (persian speedwell [3]; [10]): 0 (Herbicidal rate of 5% or less (almost no effect)); herbicidal effect on persian speedwell (R) (persian speedwell [4]; [11]): 3 (Herbicidal rate of 40% or more and less than 70%); herbicidal effect on barnyard grass (H) (barnyard grass [5]; [11]): 3 (Herbicidal rate of 40% or more and less than 70%); herbicidal effect rating, B: Japanese bulrush (Japanese bulrush; AAH 246 g/ha): 0 (Herbicidal rate of 5% or less (almost no effect)); herbicidal effect on windgrass (L) (windgrass; [11]): 0 (Herbicidal rate of 5% or less (almost no effect)); herbicidal effect on false cleavers (Q) (false cleavers [6]; [11]): 3 (Herbicidal rate of 40% or more and less than 70%); I: wild oat, herbicidal effect grade (wild oat; [10]): 0 (Herbicidal rate of 5% or less (almost no effect)); M: velvetleaf, herbicidal effect grade (velvetleaf; [10]): 0 (Herbicidal rate of 5% or less (almost no effect))

Q: What does the source list for `Cc1nn(C)c(=O)c(-c2c(-c3ccc(OC(C)C)cc3)sc3ccccc23)c1O` [1-020]?
A: herbicidal effect rating, N: redroot pigweed (redroot pigweed [1]; [12]): 0 (Herbicidal rate of 5% or less (almost no effect)); herbicidal effect rating, G: green foxtail (green foxtail; [12]): 5 (Herbicidal rate of 90% or more (almost completely withered)); herbicidal effect rating, A: late watergrass (late watergrass; AAH 320 g/ha): 2 (Herbicidal rate of 20% or more and less than 40%); herbicidal effect rating, C: oval-leafed pondweed (oval-leafed pondweed; AAH 320 g/ha): 3 (Herbicidal rate of 40% or more and less than 70%); herbicidal effect rating, H: barnyard grass (barnyard grass [2]; [12]): 5 (Herbicidal rate of 90% or more (almost completely withered)); herbicidal effect rating, J: blackgrass (blackgrass; [12]): 1 (Herbicidal rate of 5% or more and less than 20%); herbicidal effect rating, F: southern crabgrass (southern crabgrass; [12]): 0 (Herbicidal rate of 5% or less (almost no effect)); herbicidal effect rating, R: persian speedwell (persian speedwell [3]; [12]): 5 (Herbicidal rate of 90% or more (almost completely withered)); herbicidal effect rating, Q: false cleavers (false cleavers [7]): 0 (Herbicidal rate of 5% or less (almost no effect)); herbicidal effect grade, P: chickweed (chickweed; [13]): 5 (Herbicidal rate of 90% or more (almost completely withered)); herbicidal effect grade, R: persian speedwell (persian speedwell [4]; [13]): 5 (Herbicidal rate of 90% or more (almost completely withered)); herbicidal effect grade, H: barnyard grass (barnyard grass [5]; [13]): 4 (Herbicidal rate of 70% or more and less than 90%); herbicidal effect rating, B: Japanese bulrush (Japanese bulrush; AAH 320 g/ha): 3 (Herbicidal rate of 40% or more and less than 70%); herbicidal effect grade, N: redroot pigweed (redroot pigweed [8]; [13]): 3 (Herbicidal rate of 40% or more and less than 70%); herbicidal effect grade, L: windgrass (windgrass; [13]): 5 (Herbicidal rate of 90% or more (almost completely withered)); herbicidal effect rating, I: wild oat (wild oat; [12]): 0 (Herbicidal rate of 5% or less (almost no effect)); herbicidal effect rating, M: velvetleaf (velvetleaf; [12]): 0 (Herbicidal rate of 5% or less (almost no effect))

Q: How did the “herbicidal effect on N: redroot pigweed” value (redroot pigweed [1]; [12]) turn out when `C=CCOC(=O)Oc1c(C)nn(C)c(=O)c1-c1c(-c2ccc(OC(F)F)cc2)sc2ccc(F)cc12` [2-294] was run?
A: 5 (Herbicidal rate of 90% or more (almost completely withered))

Q: And the “herbicidal effect on G: green foxtail” value (green foxtail; [12])?
A: 5 (Herbicidal rate of 90% or more (almost completely withered))

Q: And the “herbicidal effect rating, A: late watergrass” value (late watergrass; AAH 320 g/ha)?
A: 3 (Herbicidal rate of 40% or more and less than 70%)

Q: What about the “herbicidal effect rating, C: oval-leafed pondweed” value (oval-leafed pondweed; AAH 320 g/ha) of the same compound?
A: 3 (Herbicidal rate of 40% or more and less than 70%)

Q: What about the “herbicidal effect on H: barnyard grass” value (barnyard grass [2]; [12]) of the same compound?
A: 5 (Herbicidal rate of 90% or more (almost completely withered))

Q: What about the “herbicidal effect on F: southern crabgrass” value (southern crabgrass; [12]) of the same compound?
A: 5 (Herbicidal rate of 90% or more (almost completely withered))

Q: What about the “herbicidal effect on R: persian speedwell” value (persian speedwell [3]; [12]) of the same compound?
A: 5 (Herbicidal rate of 90% or more (almost completely withered))

Q: What about the “P: chickweed, herbicidal effect (criteria 0-5)” value (chickweed; [14]) of the same compound?
A: 5 (Herbicidal rate of 90% or more (almost completely withered))

Q: What about the “R: persian speedwell, herbicidal effect (criteria 0-5)” value (persian speedwell [4]; [14]) of the same compound?
A: 5 (Herbicidal rate of 90% or more (almost completely withered))

Q: What about the “H: barnyard grass, herbicidal effect (criteria 0-5)” value (barnyard grass [5]; [14]) of the same compound?
A: 5 (Herbicidal rate of 90% or more (almost completely withered))

Q: What about the “herbicidal effect rating, B: Japanese bulrush” value (Japanese bulrush; AAH 320 g/ha) of the same compound?
A: 3 (Herbicidal rate of 40% or more and less than 70%)

Q: And the “N: redroot pigweed, herbicidal effect (criteria 0-5)” value (redroot pigweed [8]; [14])?
A: 5 (Herbicidal rate of 90% or more (almost completely withered))

Q: And the “L: windgrass, herbicidal effect (criteria 0-5)” value (windgrass; [14])?
A: 3 (Herbicidal rate of 40% or more and less than 70%)

Q: And the “Q: false cleavers, herbicidal effect (criteria 0-5)” value (false cleavers [6]; [14])?
A: 5 (Herbicidal rate of 90% or more (almost completely withered))

Q: And the “herbicidal effect on I: wild oat” value (wild oat; [12])?
A: 1 (Herbicidal rate of 5% or more and less than 20%)

Q: What about the “herbicidal effect on M: velvetleaf” value (velvetleaf; [12]) of the same compound?
A: 5 (Herbicidal rate of 90% or more (almost completely withered))
